From a melting point compilation (Tetko et al.; mined from patent text by program, amines drawn as free bases though some values may be those of a salt)

For `CC(Nc1ccc(Cl)c(Cl)c1)C(=O)NCC#N` (stereo not given), the melting point was 134 to 135 °C. `C[C@@H](n1ccn(-c2ccc(-n3ccnn3)cc2)c1=O)[C@](O)(Cn1cncn1)c1ccc(F)cc1F` showed a melting point of 178 to 181 °C. In the case of `CC(C)(C)COC1CCC(=O)N1` (stereo not given), the melting point is reported as 45 °C. In the case of `CCCCc1nc(SCC)c2ccccc2c1Cc1ccc(C(=O)O)cc1`, the melting point is reported as 150 °C. `NC(=O)CN1CCC(C(=O)N2CCN3C(=O)OC(c4ccccc4)(c4ccccc4)C3C2)CC1` (stereo not given) gave a melting point of 253 to 255 °C. With `Cc1ccc(O)c(-c2nc(N(C)C)sc2C(c2ccc(N(C)C)cc2)c2ccc(N(C)C)cc2)c1` the melting point was 189 to 191 °C. `Cc1oc(-c2ccccc2)nc1COc1ccc(CON=C(CC(=O)O)c2ccccc2)cc1` showed a melting point of 107 to 108 °C. Work on `CCCCc1nc2c(N)nc3ccc(O)cc3c2n1CCCCNC(=O)c1ccccc1` yielded a melting point of 188 to 190 °C. Work on `Cc1c(F)c(N2CCNCC2)c(Cl)c2c1c(=O)c(C(=O)O)cn2C1CC1` yielded a melting point of 234 to 235 °C. Work on `CCCCCCCCN1CC(C(=O)OC)N(S(=O)(=O)c2ccc(NC(=O)c3ccc(Cl)cc3)cc2)CC1=O` (stereo not given) yielded a melting point of 171 to 173 °C. With `O=C(Cl)c1cnc(Cl)nc1-c1ccccc1` the melting point was 42 °C. In the case of `BrCC1(CBr)COC(c2ccccc2)OC1`, the melting point is reported as 66 °C. Compound `CCCC(=O)N(Cc1ccc(-c2ccccc2-c2nnn[nH]2)cc1)C(C)(C)C(=O)O` has a melting point of 187 to 189 °C. Work on `N#Cc1ccc2c(c1)S(=O)c1ccccc1C=C2` (stereo not given) yielded a melting point of 220 to 222 °C. Work on `CC1Cc2cc3c(cc2C(c2ccc([N+](=O)[O-])cc2)=NN1C1=NCCS1)OCO3` (stereo not given) yielded a melting point of 185 to 187 °C. For `O=C(CCCCl)Nc1ccc2[nH]ncc2c1`, the melting point was 160 to 161 °C. Work on `CC1CCCCN1c1nc(-c2ccc(Cl)cc2)c(CCC(=O)O)o1` (stereo not given) yielded a melting point of 126 to 128 °C. Work on `CSc1cc(Nc2cccc(C)c2)c(S(=O)(=O)NC(C)(C)C)cn1` yielded a melting point of 178 °C. With `Cc1ccc(C)n1-c1ccc(OC(C)(C)C(=O)O)cc1` the melting point was 178 to 180 °C. `Cc1c[nH]c2c([N+](=O)[O-])ccc(Cl)c2c1=O` showed a melting point of over 250 °C. `Cn1c(C(=O)OCc2ccccc2)c(-c2ccc(F)cc2)c2cccnc2c1=O` showed a melting point of 217 to 218 °C. For `Cn1cc(Br)cc(Nc2cc(C3CC3)n[nH]2)c1=O`, the melting point was 203 to 204 °C. Compound `CNC(=S)c1cnn(-c2ccccc2)c1C#N` has a melting point of 215 to 217 °C. `CNC(=O)C(=NOC)c1ccccc1COc1ncc(C)cc1C(=O)OC(C)C` gave a melting point of 165 to 166 °C. Compound `Cc1c(CCCC=CC(=O)O)cccc1Cc1ccc(Cl)cc1` has a melting point of 115 °C. With `COc1cc(OC)nc(C2(O)OC(=O)c3c(-c4ccc(Cl)cc4)ccnc32)n1` (stereo not given) the melting point was 228 to 231 °C. `CCOC(=O)c1cn(C2CCCCC2)c2cc(I)ccc2c1=O` showed a melting point of 169 to 171 °C. In the case of `CC(C)(C)OC(=O)N1CCC[C@@H](O)[C@H](C(=O)O)C1`, the melting point is reported as 98.5 to 102 °C. With `O=C1C=C(O)CC(c2ccccc2)N1` (stereo not given) the melting point was 166 to 169 °C. Work on `COc1cc(CCCn2ccnc2)ccc1OCc1coc(-c2cccs2)n1` yielded a melting point of 94 to 95 °C. `O=c1cc(-c2ccccc2)cc2n1CCN2` gave a melting point of 198 to 200 °C. `Cc1ccc(F)c2c1N(CC1CCCO1)C(=O)C21COc2cc3c(cc21)CCO3` (stereo not given) gave a melting point of 175 to 176 °C. With `CC1=NN(c2ccc(Cl)cc2)C(c2ccc(N)c(C)c2)C1` (stereo not given) the melting point was 180 to 184 °C. Compound `Cc1cccc(N2CCN(CCCCc3ccc(C4CCC(=O)N4)cc3)CC2)c1C` (stereo not given) has a melting point of 112 to 114 °C. Work on `O=c1c2[nH]c(C(C3CC3)C3CC3)nc2n(C2CC2)c(=O)n1C1CC1` yielded a melting point of 197 to 198 °C. Work on `CN1C(=O)c2ccccc2N=C(N)C1c1ccccc1` (stereo not given) yielded a melting point of 282 to 286 °C. With `Cc1noc(NS(=O)(=O)c2ccccc2-c2ccc(-c3cocn3)cc2)c1C` the melting point was 85 to 93 °C. Work on `COc1cc(-c2ccc(N)cc2C(=O)NCCNC(=O)c2cc(N)ccc2-c2cc(OC)c(OC)c(OC)c2)cc(OC)c1OC` yielded a melting point of over 250 °C. Work on `COc1ccc2nc3c(c(Cl)c2c1)C(=O)c1ccccc1-3` yielded a melting point of 232 to 234 °C. In the case of `CCCCCCCC(=O)C(CC(=O)OCC)C(=O)OCC` (stereo not given), the melting point is reported as 138 to 142 °C.
